Several values for one entry are separate records, joined by “and”; a condition that tells them apart may be missing. Identical values can stand only once. Like-named read-outs stand apart in the source and are kept apart here.
Assay: Single dose oral capsule pharmacokinetics of BHV-3500 in dogs (plasma LC-MS/MS)
Format: in vivo, beagle dogs
Details: for AUC(0-t): read-out: AUC0-4 hr; for concentration at 0.5 h: 0.5 h post-dose
Protocol: The pharmacokinetics (PK) of BHV-3500 after a single oral capsule of BHV-3500 in dogs were investigated.
After each dose, blood samples (approximately 3 mL from the jugular vein) for determination of plasma levels of BHV-3500 were obtained from of each dog at six time points (pre-dose; 15, 30, and 60 minutes and 2 and 4 hours post-dose. EDTA was used as the anticoagulant. Plasma samples were frozen at approximately −70′C until analyzed.
For the determination of BHV-3500 in plasma, a 50 μL aliquot from each sample was transferred into the appropriate well of a 96-well plate to which 10 μL of 50% acetonitrile (ACN) in water was added, followed by 250 μL of internal standard solution (10 ng/mL BHV-3500-d8 in ACN). After sealing the plate and vortexing for approximately 5 minutes, the plate was centrifuged at 4,000 rpm for 10 minutes at 4±4° C. A portion (100 μL) of the resulting supernatant was transferred to into the appropriate well (containing 300 μL 0.15% formic acid in water) of another 96-well plate. This plate was sealed and its contents mixed prior to instrumental analysis.
Freshly prepared BHV-3500 standard curves and QC samples were analyzed along with the study samples. Instrument calibrators were prepared by adding 10 μL of a stock BHV-3500 solution to 50 μL of blank dog plasma. Blank dog plasma was sourced from BioIVT (Hicksville, NY) and stored frozen at −20° C. Nominal calibrator concentrations ranged from 2.00 to 200 ng/mL. QC samples were prepared at concentrations of 6.00, 50.0 and 150 ng/mL. Calibrators and QC samples were processed for analysis following the extraction procedure described above.
Calibrator, QC and study samples were analyzed under LC-S/MS instrument conditions detailed in Table 7.
Calibration curves were calculated from the linear regression (weighting factor of 1/x2) of the analyte to internal standard peak area ratios versus the analyte concentrations. Concentrations of analyte in the samples were determined using the peak area ratios and the regression parameters of the calibration curves.
Individual animal plasma BHV-3500 concentration data at scheduled (nominal) sampling times were analyzed using the non-compartmental model f r extravascular administration with Phoenix WinNonlin software (Version 8.1; Certara, Princeton, NJ).
Elimination rate constant values (λz) were calculated by log-linear regression on data points of the terminal phase (using Phoenix WinNonlin's Best Fit Lambda Z Calculation Method option) when allowed by the data; the plasma elimination half-life (t1/2) was calculated as ln(2)/λz. Area under the plasma concentration-time curve values from time zero to the concentration at the 4 hour time point (AUC0-4 hr) were calculated by the linear-up/log-down trapezoidal rule.
Nominal dose levels were used for PK analysis. The PK parameters listed below were evaluated (as applicable and when allowed by the data). • Elimination half-life (t1/2) • Time of occurrence of maximum plasma concentration (Tmax) • Maximum plasma concentration (Cmax) • Area under plasma concentration-time curve [0 to the 4 hour time point; AUC0-4hr]

[1] = Group 6, oral capsule, 50 mg BHV-3500 in 25 mg DDM, individual dogs
[2] = female, beagle, dog, plasma, po, 20 mg, Group 3, oral capsule, 20 mg BHV-3500 in 25 mg DDM, average
[3] = female, beagle, dog, plasma, po, 20 mg, Group 3, oral capsule, 20 mg BHV-3500 in 25 mg DDM, individual dogs

Cc1cc(C[C@@H](NC(=O)N2CCC(c3cc4ccccc4[nH]c3=O)CC2)C(=O)N2CCN(C3CCN(C)CC3)CC2)cc2cn[nH]c12 [BHV-3500, (R)—N-(3-(7-methyl-1H indazol-5-yl)-1-(4-(1-methylpiperidin-4-yl)piperazin-1-yl)-1-oxopropan-2-yl)-4-(2-oxo-1,2 dihydroquinolin-3-yl)piperidine-1-carboxamide]
BHV-3500 Concentration in Dog Plasma (Group 6, oral capsule, 50 mg BHV-3500 in 25 mg DDM, 2 h post-dose, individual dogs): BQL (BQL = below quantitation limit (2.0 ng/mL)) | BHV-3500 Concentration in Dog Plasma (Group 6, oral capsule, 50 mg BHV-3500 in 25 mg DDM, 4 h post-dose, individual dogs): BQL (BQL = below quantitation limit (2.0 ng/mL)) | AUC0-4 hr [1]: 10.6 ng·h/mL and 24.0 ng·h/mL | Cmax [1]: 5.34 ng/mL and 2.42 ng/mL and 12.0 ng/mL | Tmax [1]: 1 h | concentration at 2 h (female, beagle, dog, plasma, oral, 20 mg, Group 2, 20 mg with Vehicle 6, 2 hours post-dose, read-out: mean plasma exposure): 22 nM | concentration at 2 h (female, beagle, dog, plasma, oral, 20 mg, Group 3, 20 mg with DDM, 2 hours post-dose, read-out: mean plasma exposure): 29.5 nM | concentration at 1 h (female, beagle, dog, plasma, oral, 50 mg, Group 5, 50 mg with Vehicle 6, 1 hour post-dose, read-out: mean plasma exposure): 18 nM | concentration at 2 h (female, beagle, dog, plasma, oral, 50 mg, Group 5, 50 mg with Vehicle 6, 2 hours post-dose, read-out: mean plasma exposure): 63.3 nM | concentration at 4 h (female, beagle, dog, plasma, oral, 50 mg, Group 6, 50 mg with DDM, 4 hours post-dose, read-out: mean plasma exposure): 13.5 nM | concentration at 1 h (female, beagle, dog, plasma, po, 20 mg, Group 2, oral capsule, 20 mg BHV-3500 in 900 mg vehicle of Formulation 2 (SEDDS excipients), 1 h post-dose, average, read-out: BHV-3500 Concentration in Dog Plasma): 2.57 ng/mL | concentration at 2 h (female, beagle, dog, plasma, po, 20 mg, Group 2, oral capsule, 20 mg BHV-3500 in 900 mg vehicle of Formulation 2 (SEDDS excipients), 2 h post-dose, average, read-out: BHV-3500 Concentration in Dog Plasma): 14.2 ng/mL | concentration at 4 h (female, beagle, dog, plasma, po, 20 mg, Group 2, oral capsule, 20 mg BHV-3500 in 900 mg vehicle of Formulation 2 (SEDDS excipients), 4 h post-dose, average, read-out: BHV-3500 Concentration in Dog Plasma): 3.09 ng/mL | AUC(0-t) (female, beagle, dog, plasma, po, 20 mg, Group 2, oral capsule, 20 mg BHV-3500 in 900 mg vehicle of Formulation 2 (SEDDS excipients), average): 19.8 ng·h/mL | Cmax (female, beagle, dog, plasma, po, 20 mg, Group 2, oral capsule, 20 mg BHV-3500 in 900 mg vehicle of Formulation 2 (SEDDS excipients), average, read-out: Cmax): 14.2 ng/mL | AUC(0-t) (female, beagle, dog, plasma, po, 20 mg, Group 2, oral capsule, 20 mg BHV-3500 in 900 mg vehicle of Formulation 2 (SEDDS excipients), individual dogs): 19.8 ng·h/mL | Tmax (female, beagle, dog, plasma, po, 20 mg, Group 2, oral capsule, 20 mg BHV-3500 in 900 mg vehicle of Formulation 2 (SEDDS excipients), individual dogs, read-out: Tmax): 2 h | Tmax (female, beagle, dog, plasma, po, 20 mg, Group 2, oral capsule, 20 mg BHV-3500 in 900 mg vehicle of Formulation 2 (SEDDS excipients), median, read-out: Tmax): 2 h | concentration at 0.5 h [2]: 14 ng/mL | concentration at 0.5 h [3]: 14 ng/mL | concentration at 1 h (female, beagle, dog, plasma, po, 20 mg, Group 3, oral capsule, 20 mg BHV-3500 in 25 mg DDM, 1 h post-dose, average, read-out: BHV-3500 Concentration in Dog Plasma): 3.56 ng/mL | concentration at 1 h (female, beagle, dog, plasma, po, 20 mg, Group 3, oral capsule, 20 mg BHV-3500 in 25 mg DDM, 1 h post-dose, individual dogs, read-out: BHV-3500 Concentration in Dog Plasma): 3.56 ng/mL | concentration at 2 h (female, beagle, dog, plasma, po, 20 mg, Group 3, oral capsule, 20 mg BHV-3500 in 25 mg DDM, 2 h post-dose, average, read-out: BHV-3500 Concentration in Dog Plasma): 18.9 ng/mL | concentration at 4 h (female, beagle, dog, plasma, po, 20 mg, Group 3, oral capsule, 20 mg BHV-3500 in 25 mg DDM, 4 h post-dose, average, read-out: BHV-3500 Concentration in Dog Plasma): 2.18 ng/mL | concentration at 4 h (female, beagle, dog, plasma, po, 20 mg, Group 3, oral capsule, 20 mg BHV-3500 in 25 mg DDM, 4 h post-dose, individual dogs, read-out: BHV-3500 Concentration in Dog Plasma): 2.18 ng/mL | AUC(0-t) [2]: 48.1 ng·h/mL | Cmax (female, beagle, dog, plasma, po, 20 mg, Group 3, oral capsule, 20 mg BHV-3500 in 25 mg DDM, average, read-out: Cmax): 17.3 ng/mL | AUC(0-t) [3]: 48.1 ng·h/mL

From patent US12622968B2, “Formulation for oral delivery of proteins, peptides and small molecules with poor permeability” (R.P. Scherer Technologies, LLC, priority 2019, dated 2026)
